Data taken from patent publication US9642869B2, “Boronic acid derivatives and therapeutic uses thereof” (Rempex Pharmaceuticals, Inc., priority 2013, dated 2017).

How the values were obtained:
[1] = tested on: SHV-5 ec308; assay: Aztreonam potentiation (MPC@4); format: cell-based; details: minimum BLI concentration inhibiting growth with 4 μg/mL aztreonam
[2] = tested on: ECL1002; format: cell-based; details: minimum BLI concentration inhibiting growth with tigemonam at 4 μg/mL
[3] = tested on: TEM-10 ec302; format: cell-based
[4] = tested on: KPC-2 KP1004; assay: Aztreonam potentiation (MPC@4); format: cell-based; details: minimum BLI concentration inhibiting growth with 4 μg/mL aztreonam
[5] = tested on: CTX-M-14 KP1005; format: cell-based
[6] = tested on: ECL1002; assay: Aztreonam potentiation (MPC@4); format: cell-based; details: minimum BLI concentration inhibiting growth with 4 μg/mL aztreonam
[7] = tested on: SHV-5 ec308; format: cell-based; details: minimum BLI concentration inhibiting growth with tigemonam at 4 μg/mL
[8] = tested on: KP1004 KPC-2; assay: Biapenem potentiation (MPC@1); format: cell-based; details: minimum BLI concentration inhibiting growth with 1 μg/mL biapenem
Description: (§1) Biapenem was present in the test medium at 1 μg/mL. […] Table 3 summarizes the BLI potency of biapenem potentiation (MPC@1) for two strains overexpressing class A (KPC) and class D (OXA-48) carbapenemases. Biapenem MIC for each strain is also shown.

[9] = tested on: OXA-48 KP1086; assay: Biapenem potentiation (MPC@1); format: cell-based; details: minimum BLI concentration inhibiting growth with 1 μg/mL biapenem
Description: as §1

[10] = tested on: CMY-6 EC1010; assay: Aztreonam potentiation (MPC@4); format: cell-based; details: minimum BLI concentration inhibiting growth with 4 μg/mL aztreonam
[11] = Salt/complex formation to maintain the monomeric form (solution pH, monomer by HPLC); format: physicochemical
Description: The effect of additives that would form a salt or complex with the boronic acid derivatives was evaluated in order to identify those that would strongly favor the monomeric form at an acceptable pH for IV infusion (pH 4-8). […] The pH of the resulting homogeneous solution was measured with a pH meter and the purity was monitored by HPLC. Several bases and complexing agents were screened to identify those that would afford the highest monomer content as salt/complex with a desired pH. […] Oligomerization was more pronounced at higher concentrations with some bases and complexing agents. Among all the bases screened, the meglumine complex gave the highest percentage of monomeric form at the desired pH.

[12] = tested on: CTX-M-15 KP1009; format: cell-based
[13] = tested on: CTX-M-15 KP1009; assay: Aztreonam potentiation (MPC@4); format: cell-based; details: minimum BLI concentration inhibiting growth with 4 μg/mL aztreonam
[14] = Intravenous pharmacokinetics; format: in vivo; details: rat, plasma; rats, IV infusion over 0.5 hours, dose 20 mg/kg; read-out: Free Cl (converted)
Description: Rats (n=3 per compound) were administered by a single infusion. IV doses were infused over 0.5 hours via an indwelling femoral vein cannula. Plasma (˜0.3 mL) samples were collected from each rat at designated time points up to 24 hours. Blood samples were centrifuged within 5 min of collection at 12000 g for 5 min to obtain plasma. The plasma samples were stored at −80° C. until analyzed. Data were analyzed using WinNonlin.

[15] = molecular target: SHV-12 (Klebsiella pneumoniae, UniProt P0AD64, E235K/G234S/L31Q); assay: Inhibition of nitrocefin cleavage by purified enzyme (Ki); format: biochemical; details: nitrocefin reporter substrate, 10 min preincubation; read-out: Ki (SHV-12, NCF)
Chain of SHV-12 (P0AD64 22-286 L31Q/G234S/E235K): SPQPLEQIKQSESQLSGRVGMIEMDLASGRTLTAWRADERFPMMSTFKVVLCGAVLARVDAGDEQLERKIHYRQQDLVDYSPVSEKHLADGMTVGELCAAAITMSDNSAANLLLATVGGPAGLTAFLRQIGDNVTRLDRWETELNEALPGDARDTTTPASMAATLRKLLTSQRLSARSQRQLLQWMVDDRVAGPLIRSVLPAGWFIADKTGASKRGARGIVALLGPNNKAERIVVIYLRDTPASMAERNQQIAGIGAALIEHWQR
Summary of the method: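 Purified enzyme was preincubated with a range of inhibitor concentrations in reaction buffer for 10 min at room temperature. Nitrocefin was then added and its cleavage followed at 490 nm every 10 sec for 10 min.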

[16] = Compound 13 2 mg/mL in water, Pyridine-2-methanol, 2 equivalents
[17] = Compound 13 3 mg/mL in water, L-Lysine, 2 equivalents
[18] = Compound 13 10 mg/mL in water, 0.5N NaOH, 1 equivalent
[19] = Compound 13 10 mg/mL in water, 0.5N NaOH, 2 equivalents
[20] = Compound 13 10 mg/mL in water, Diethanolamine, 2 equivalents
[21] = Compound 13 10 mg/mL in water, Ethanolamine, 2 equivalents
[22] = Compound 13 10 mg/mL in water, Tris, 2 equivalents
[23] = Compound 13 50 mg/mL in water, Tris, 2 equivalents
[24] = Compound 13 50 mg/mL in water, Tris, 3 equivalents

CSCC(=O)N[C@H]1Cc2cccc(C(=O)O)c2OB1O [Compound 13, (R)-2-hydroxy-3-(2-(methylthio)acetamido)-3,4-dihydro-2H-benzo[e][1,2]oxaborinine-8-carboxylic acid]
AZT MPC4 SHV-5 ec308 [1]: X (MIC of less than 1 μg/mL)
TIG MPC4 ECL1002 [2]: X (MIC of less than 1 μg/mL)
TIG MPC4 TEM-10 ec302 [3]: Y (key: X: MIC of less than 1 μg/mL; Y: MIC of 1 μg/mL to 10 μg/mL; Z: MIC of greater than 10 μg/mL)
AZT MPC4 KPC-2 KP1004 [4]: X (MIC of less than 1 μg/mL)
TIG MPC4 CTX-M-14 KP1005 [5]: X (key: X: MIC of less than 1 μg/mL; Y: MIC of 1 μg/mL to 10 μg/mL; Z: MIC of greater than 10 μg/mL)
AZT MPC4 ECL1002 [6]: X (MIC of less than 1 μg/mL)
TIG MPC4 SHV-5 ec308 [7]: X (MIC of less than 1 μg/mL)
BPM MPC1 KP1004 KPC-2 [8]: X (MIC of less than 1 μg/mL)
BPM MPC1 OXA-48 KP1086 [9]: Y (MIC of 1 μg/mL to 10 μg/mL)
AZT MPC4 CMY-6 EC1010 [10]: X (MIC of less than 1 μg/mL)
Monomer purity by HPLC (%) [11, 16]: 78%
pH [11, 16]: 5.5
Monomer purity by HPLC (%) [11, 17]: 97.3%
pH [11, 17]: 8.9
Monomer purity by HPLC (%) [11, 18]: 51.3%
pH [11, 18]: 7.3
Monomer purity by HPLC (%) [11, 19]: 60.9%
pH [11, 19]: 8.4
Monomer purity by HPLC (%) [11, 20]: 92.2%
pH [11, 20]: 11
Monomer purity by HPLC (%) [11, 21]: 97.1%
pH [11, 21]: 11
pH ([11]; Compound 13 10 mg/mL in water, Meglumine, 2 equivalents): 7.1
Monomer purity by HPLC (%) [11, 22]: 94.7%
pH [11, 22]: 7.8
pH ([11]; Compound 13 50 mg/mL in water, Meglumine, 2 equivalents): 7.2
Monomer purity by HPLC (%) [11, 23]: 89.7%
pH [11, 23]: 7.7
Monomer purity by HPLC (%) [11, 24]: 95.4%
pH [11, 24]: 8.5
TIG MPC4 CTX-M-15 KP1009 [12]: X (key: X: MIC of less than 1 μg/mL; Y: MIC of 1 μg/mL to 10 μg/mL; Z: MIC of greater than 10 μg/mL)
AZT MPC4 CTX-M-15 KP1009 [13]: X (MIC of less than 1 μg/mL)
clearance [14]: 41.2 mL/min/kg

O=C(Cc1cccs1)N[C@H]1Cc2cccc(C(=O)O)c2OB1O [CPD A, reference compound]
AZT MPC4 SHV-5 ec308 [1]: X (MIC of less than 1 μg/mL)
TIG MPC4 ECL1002 [2]: Y (MIC of 1 μg/mL to 10 μg/mL)
TIG MPC4 TEM-10 ec302 [3]: Z (key: X: MIC of less than 1 μg/mL; Y: MIC of 1 μg/mL to 10 μg/mL; Z: MIC of greater than 10 μg/mL)
AZT MPC4 KPC-2 KP1004 [4]: Y (MIC of 1 μg/mL to 10 μg/mL)
TIG MPC4 CTX-M-14 KP1005 [5]: Y (key: X: MIC of less than 1 μg/mL; Y: MIC of 1 μg/mL to 10 μg/mL; Z: MIC of greater than 10 μg/mL)
Ki [15]: < 1 nM
AZT MPC4 ECL1002 [6]: Y (MIC of 1 μg/mL to 10 μg/mL)
TIG MPC4 SHV-5 ec308 [7]: Y (MIC of 1 μg/mL to 10 μg/mL)
BPM MPC1 KP1004 KPC-2 [8]: X (MIC of less than 1 μg/mL)
BPM MPC1 OXA-48 KP1086 [9]: Y (MIC of 1 μg/mL to 10 μg/mL)
AZT MPC4 CMY-6 EC1010 [10]: Y (MIC of 1 μg/mL to 10 μg/mL)
TIG MPC4 CTX-M-15 KP1009 [12]: Y (key: X: MIC of less than 1 μg/mL; Y: MIC of 1 μg/mL to 10 μg/mL; Z: MIC of greater than 10 μg/mL)
AZT MPC4 CTX-M-15 KP1009 [13]: Y (MIC of 1 μg/mL to 10 μg/mL)
